From patent publication US20050014766A1, “Use of n-(indolecarbonyl-)piperazine derivatives” (priority 2002, published 2005)

How the values were obtained:
[1] = Feeding experiment on Beagle hounds (body weight, feed consumption, behaviour and general state); type: in vivo
Procedure: The efficacy of the compounds of the formula I for the treatment of obesity can be determined in vivo as follows (cf. Example B): A certain dose or varying doses of the test compound is administered to one group of experimental animals over an extended period. The amount of feed consumed and the body weight of the experimental animals are recorded regularly. At the same time, the behaviour and general state of the animals are monitored in a manner known per se. Conclusions can be drawn on the suitability of the test compound for the treatment of obesity from the decrease in the body weight and the take-up of feed in the experimental period with an otherwise unchanged general state and in the absence of changes in behaviour. The test substance in the form of hard gelatine capsules produced as described in Example B7 is administered once daily over a period of 11 days to a group of Beagle hounds about 8 months old which had been dewormed in advance. The amount of feed consumed is determined daily by re-weighing the unconsumed feed, the body weight before (day 0), during (day 5) and after (day 12) the feeding experiment. At the same time, the behaviour and general state of the animals are monitored over the entire experimental period. Drinking water in unlimited amount is available to the dogs. […] The behaviour and general state of the dogs are not impaired in the experimental period by the administration of the test substance.

[2] = as above; type: in vivo; remark: listed apart in the source
[3] = Beagle hounds, once daily oral capsules over 11 days

Cl.N#Cc1c[nH]c2c(C(=O)N3CCN(CCc4ccc(F)cc4)CC3)cccc12 [(3-cyano-1H-indol-7-yl)[4-(4-fluoro-phenethyl)piperazin-1-yl]methanone, hydrochloride]
body weight ([1]; Dog 8910 (male), day 0, before dosing): 8.6 kg
feed consumption ([1]; Dog 8910 (male), day 2, dose 10 mg/kg): 320 g
body weight ([1]; Dog 8910 (male), day 5, once daily capsules 3, 10, 30 mg/kg days 1-3, 100 mg/kg from day 4): 8.6 kg
feed consumption ([1]; Dog 8910 (male), day 6, dose 100 mg/kg): 240 g
feed consumption ([1]; Dog 8910 (male), day 10, dose 100 mg/kg): 20 g
body weight ([1]; Dog 8910 (male), day 12, after 3, 10, 30 mg/kg days 1-3 and 100 mg/kg days 4-11): 7.8 kg
feed consumption ([1]; Dog 8936 (female), day 6, dose 100 mg/kg): 140 g
behaviour and general state of the dogs ([2]; Beagle hounds, experimental period, doses up to 100 mg/kg): not impaired
body weight change (in words) [2, 3]: significant reduction in body weight
consumption of feed during the experiment (in words) [2, 3]: increasingly restrict the consumption of feed
body weight ([2]; Dog 1201 (male), day 0, before dosing): 6.8 kg
feed consumption ([2]; Dog 1201 (male), day 1, no dose yet (dosing starts day 5)): 440 g
feed consumption ([2]; Dog 1201 (male), day 2, no dose yet (dosing starts day 5)): 260 g
feed consumption ([2]; Dog 1201 (male), day 3, no dose yet (dosing starts day 5)): 400 g
feed consumption ([2]; Dog 1201 (male), day 4, no dose yet (dosing starts day 5)): 230 g
feed consumption ([2]; Dog 1201 (male), day 5, dose 50 mg/kg): 340 g
body weight ([2]; Dog 1201 (male), day 5, first day of 50 mg/kg): 7.1 kg
feed consumption ([2]; Dog 1201 (male), day 6, dose 50 mg/kg): 220 g
feed consumption ([2]; Dog 1201 (male), day 7, dose 50 mg/kg): 160 g
feed consumption ([2]; Dog 1201 (male), day 8, dose 50 mg/kg): 170 g
feed consumption ([2]; Dog 1201 (male), day 9, dose 50 mg/kg): 130 g
feed consumption ([2]; Dog 1201 (male), day 10, dose 50 mg/kg): 80 g
feed consumption ([2]; Dog 1201 (male), day 11, dose 50 mg/kg): 40 g
body weight ([2]; Dog 1201 (male), day 12, after 50 mg/kg days 5-11): 6.3 kg
body weight ([2]; Dog 2164 (female), day 0, before dosing): 6.1 kg
feed consumption ([2]; Dog 2164 (female), day 1, no dose yet (dosing starts day 5)): 310 g
feed consumption ([2]; Dog 2164 (female), day 2, no dose yet (dosing starts day 5)): 270 g
feed consumption ([2]; Dog 2164 (female), day 3, no dose yet (dosing starts day 5)): 280 g
feed consumption ([2]; Dog 2164 (female), day 4, no dose yet (dosing starts day 5)): 280 g
feed consumption ([2]; Dog 2164 (female), day 5, dose 50 mg/kg): 340 g
body weight ([2]; Dog 2164 (female), day 5, first day of 50 mg/kg): 5.9 kg
feed consumption ([2]; Dog 2164 (female), day 6, dose 50 mg/kg): 180 g
feed consumption ([2]; Dog 2164 (female), day 7, dose 50 mg/kg): 260 g
feed consumption ([2]; Dog 2164 (female), day 8, dose 50 mg/kg): 150 g
feed consumption ([2]; Dog 2164 (female), day 9, dose 50 mg/kg): 140 g
feed consumption ([2]; Dog 2164 (female), day 10, dose 50 mg/kg): 130 g
feed consumption ([2]; Dog 2164 (female), day 11, dose 50 mg/kg): 60 g
body weight ([2]; Dog 2164 (female), day 12, after 50 mg/kg days 5-11): 5.5 kg
feed consumption ([2]; Dog 8910 (male), day 1, dose 3 mg/kg): 380 g
feed consumption ([2]; Dog 8910 (male), day 3, dose 30 mg/kg): 370 g
feed consumption ([2]; Dog 8910 (male), day 4, dose 100 mg/kg): 320 g
feed consumption ([2]; Dog 8910 (male), day 5, dose 100 mg/kg): 250 g
feed consumption ([2]; Dog 8910 (male), day 7, dose 100 mg/kg): 60 g
feed consumption ([2]; Dog 8910 (male), day 8, dose 100 mg/kg): 60 g
feed consumption ([2]; Dog 8910 (male), day 9, dose 100 mg/kg): 40 g
feed consumption ([2]; Dog 8910 (male), day 11, dose 100 mg/kg): 90 g
body weight ([2]; Dog 8936 (female), day 0, before dosing): 7.5 kg
feed consumption ([2]; Dog 8936 (female), day 1, dose 3 mg/kg): 380 g
feed consumption ([2]; Dog 8936 (female), day 2, dose 10 mg/kg): 380 g
feed consumption ([2]; Dog 8936 (female), day 3, dose 30 mg/kg): 360 g
feed consumption ([2]; Dog 8936 (female), day 4, dose 100 mg/kg): 220 g
feed consumption ([2]; Dog 8936 (female), day 5, dose 100 mg/kg): 200 g
body weight ([2]; Dog 8936 (female), day 5, once daily capsules 3, 10, 30 mg/kg days 1-3, 100 mg/kg from day 4): 7.3 kg
feed consumption ([2]; Dog 8936 (female), day 7, dose 100 mg/kg): 80 g
feed consumption ([2]; Dog 8936 (female), day 8, dose 100 mg/kg): 30 g
feed consumption ([2]; Dog 8936 (female), day 9, dose 100 mg/kg): 30 g
feed consumption ([2]; Dog 8936 (female), day 10, dose 100 mg/kg): 70 g
feed consumption ([2]; Dog 8936 (female), day 11, dose 100 mg/kg): 10 g
body weight ([2]; Dog 8936 (female), day 12, after 3, 10, 30 mg/kg days 1-3 and 100 mg/kg days 4-11): 6.2 kg
